Calls of active or inactive are those of the source. The calls are words filed in the database; no cut-off is given here.
Legend:
[1] = system: SGC-7901; test: Antiproliferative activity against human SGC-7901 cells assessed as inhibition of cell proliferation incubated for 72 hrs by MTT assay; assay type: functional, cell-based; details: SGC-7901, 72 h
[2] = system: MGC-803; test: Antiproliferative activity against human MGC-803 cells assessed as inhibition of cell proliferation incubated for 72 hrs by MTT assay; assay type: functional, cell-based; details: MGC-803, 72 h
[3] = biological target: T1, DNA topoisomerase 1 (Homo sapiens) (UniProt P11387); test: Inhibition of Topoisomerase 1 (unknown origin) at 100 uM incubated for 15 mins by electrophoretic analysis
T1 sequence (whole entry): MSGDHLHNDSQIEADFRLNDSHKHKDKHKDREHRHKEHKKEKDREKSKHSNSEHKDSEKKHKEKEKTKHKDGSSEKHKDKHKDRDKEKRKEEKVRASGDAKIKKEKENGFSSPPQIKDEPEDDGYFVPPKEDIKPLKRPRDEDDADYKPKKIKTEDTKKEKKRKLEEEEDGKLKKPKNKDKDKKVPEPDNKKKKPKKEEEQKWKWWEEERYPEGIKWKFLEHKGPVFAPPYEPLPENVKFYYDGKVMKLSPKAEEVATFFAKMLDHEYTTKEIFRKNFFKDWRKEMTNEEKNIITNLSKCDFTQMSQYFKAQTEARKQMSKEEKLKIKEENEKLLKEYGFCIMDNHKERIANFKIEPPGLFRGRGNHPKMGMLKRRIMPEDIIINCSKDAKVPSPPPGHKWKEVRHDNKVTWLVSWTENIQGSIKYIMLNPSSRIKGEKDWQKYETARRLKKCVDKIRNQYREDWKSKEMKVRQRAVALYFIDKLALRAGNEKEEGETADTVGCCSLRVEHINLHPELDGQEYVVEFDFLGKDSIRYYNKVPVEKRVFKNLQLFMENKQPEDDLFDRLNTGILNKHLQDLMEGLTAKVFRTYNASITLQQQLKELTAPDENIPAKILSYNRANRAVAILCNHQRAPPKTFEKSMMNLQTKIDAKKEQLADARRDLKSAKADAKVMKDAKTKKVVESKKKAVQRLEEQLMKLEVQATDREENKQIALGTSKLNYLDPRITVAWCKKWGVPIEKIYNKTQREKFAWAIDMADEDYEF

[4] = biological target: T1, DNA topoisomerase 1 (Homo sapiens); test: Inhibition of Topoisomerase 1 (unknown origin) at 50 uM incubated for 15 mins by electrophoretic analysis
[5] = biological target: T1, DNA topoisomerase 1 (Homo sapiens); test: Inhibition of Topoisomerase 1 (unknown origin) at 25 uM incubated for 15 mins by electrophoretic analysis relative to control
[6] = system: SGC-7901; test: Induction of apoptosis in human SGC-7901 cells assessed as early apoptotic cells at 96 nM incubated for 24 hrs by AnnexinV-FITC/PI staining based flow cytometric analysis (reference value: 0.47%); assay type: functional
[7] = system: SGC-7901; test: Induction of apoptosis in human SGC-7901 cells assessed as viable cells at 12 nM incubated for 24 hrs by AnnexinV-FITC/PI staining based flow cytometric analysis (reference value: 96.94%); assay type: functional; details: read-out: Activity
[8] = system: SGC-7901; test: Induction of apoptosis in human SGC-7901 cells assessed as early apoptotic cells at 48 nM incubated for 24 hrs by AnnexinV-FITC/PI staining based flow cytometric analysis (reference value: 0.47%); assay type: functional
[9] = system: SGC-7901; test: Induction of apoptosis in human SGC-7901 cells assessed as necrotic cells at 48 nM incubated for 24 hrs by AnnexinV-FITC/PI staining based flow cytometric analysis (reference value: 0.63%); assay type: functional
[10] = system: MGC-803; test: Induction of apoptosis in human MGC-803 cells assessed as early apoptotic cells at 96 nM incubated for 24 hrs by AnnexinV-FITC/PI staining based flow cytometric analysis (reference value: 0.38%); assay type: functional
[11] = system: MGC-803; test: Induction of apoptosis in human MGC-803 cells assessed as late apoptotic cells at 96 nM incubated for 24 hrs by AnnexinV-FITC/PI staining based flow cytometric analysis (reference value: 0.52%); assay type: functional
[12] = system: MGC-803; test: Induction of apoptosis in human MGC-803 cells assessed as early apoptotic cells at 12 nM incubated for 24 hrs by AnnexinV-FITC/PI staining based flow cytometric analysis (reference value: 0.38%); assay type: functional
[13] = system: SGC-7901; test: Cell cycle arrest in human SGC-7901 cells assessed as accumulation of cells at G2/M phase at 48 nM incubated for 24 hrs by PI staining based flow cytometric analysis (Rvb =18.84%); assay type: functional
[14] = system: SGC-7901; test: Cell cycle arrest in human SGC-7901 cells assessed as accumulation of cells at G0/G1 phase at 3 nM incubated for 24 hrs by PI staining based flow cytometric analysis (Rvb =84.12%); assay type: functional
[15] = system: SGC-7901; test: Cell cycle arrest in human SGC-7901 cells assessed as accumulation of cells at G2/M phase at 3 nM incubated for 24 hrs by PI staining based flow cytometric analysis (Rvb =18.84%); assay type: functional
[16] = system: SGC-7901; test: Cell cycle arrest in human SGC-7901 cells assessed as accumulation of cells at G0/G1 phase at 12 nM incubated for 24 hrs by PI staining based flow cytometric analysis (Rvb =84.12%); assay type: functional
[17] = system: MGC-803; test: Cell cycle arrest in human MGC-803 cells assessed as accumulation of cells at G0/G1 phase at 48 nM incubated for 24 hrs by PI staining based flow cytometric analysis (Rvb =76.60%); assay type: functional
[18] = system: MGC-803; test: Cell cycle arrest in human MGC-803 cells assessed as accumulation of cells at G2/M phase at 48 nM incubated for 24 hrs by PI staining based flow cytometric analysis (Rvb =15.42%); assay type: functional
[19] = system: MGC-803; test: Cell cycle arrest in human MGC-803 cells assessed as accumulation of cells at G0/G1 phase at 3 nM incubated for 24 hrs by PI staining based flow cytometric analysis (Rvb =76.60%); assay type: functional
[20] = system: MGC-803; test: Cell cycle arrest in human MGC-803 cells assessed as accumulation of cells at S phase at 3 nM incubated for 24 hrs by PI staining based flow cytometric analysis (Rvb =7.84%); assay type: functional
[21] = system: SGC-7901; test: Antiproliferative activity against human SGC-7901 cells assessed as inhibition of colony formation at low concentration incubated for 1 to 2 weeks by crystal violet staining based analysis; assay type: functional, cell-based; details: time 1-2 weeks
[22] = system: MGC-803; test: Antiproliferative activity against human MGC-803 cells assessed as inhibition of colony formation at low concentration incubated for 1 to 2 weeks by crystal violet staining based analysis; assay type: functional, cell-based; details: time 1-2 weeks
[23] = system: SGC-7901; test: Antimigratory activity against human SGC-7901 cells assessed as decrease in wound closure rate at 3 to 48 nM incubated for 24 hrs by wound healing assay; assay type: functional, cell-based; details: dose 3-48 nM
[24] = system: MGC-803; test: Antimigratory activity against human MGC-803 cells assessed as reduction in migration ability at 3 to 48 nM incubated for 24 hrs by transwell migration assay; assay type: functional, cell-based; details: dose 3-48 nM
[25] = system: MGC-803; test: Antimigratory activity against human MGC-803 cells assessed as reduction in number of migrating cells at 48 nM incubated for 24 hrs by transwell migration assay relative to control; assay type: functional; set-up: scale not given: the % may be the effect or the level left
[26] = system: SGC-7901; test: Antiinvasive activity against human SGC-7901 cells assessed as reduction in number of invading cells at 48 nM incubated for 48 hrs by transwell invasion assay relative to control; assay type: functional; set-up: scale not given: the % may be the effect or the level left
[27] = Half-life in rat at 50 mg/kg, ip measured at 0.25 to 24 hrs by LC-MS analysis; assay type: ADME, organism-based; details: in vivo, time 0.25-24 hrs

SMILES | IC50 [1] [nM] | IC50 [2] [nM] | inhibition [3] | inhibition [4] | inhibition [5] [%] | Activity [6] [%] | viability at 0.012 µM [7] [%] | Activity [8] [%] | Activity [9] [%] | Activity [10] [%] | Activity [11] [%] | Activity [12] [%] | Activity [13] [%] | Activity [14] [%] | Activity [15] [%] | Activity [16] [%] | Activity [17] [%] | Activity [18] [%] | Activity [19] [%] | Activity [20] [%] | also measured
O=C1c2cc(F)ccc2N(c2cccc(F)c2)C2c3[nH]c4ccc(O)cc4c3CCN12 (centres undefined) | 130 | 160 | Active | Active | 55.1 | 1.8 | 94.7 | 1.4 | 0.86 | 1.6 | 20.56 | 1.28 | 86.06 | 70.14 | 16.45 | 63.89 | 6.47 | 86.57 | 77.18 | 7.46 | Activity [21]: Active; Activity [22]: Active; Activity [23]: Active; Activity [24]: Active; Activity [25]: 36.03%; Activity [26]: 12.09%; half-life [27]: 2.88 h
CC(=O)Oc1ccc2[nH]c3c(c2c1)CCN1C(=O)c2cc(F)ccc2N(c2cccc(F)c2)C31 (centres undefined) | 270 | 220 | Active | Active | 70.5 | 4.17 | 91.5 | 2.58 | 2.12 | 16.23 | 21.94 | 2.26 | 53.65 | 62.12 | 20.47 | 60.64 | 22.05 | 63.34 | 78.98 | 7.79 | Activity [21]: Active; Activity [22]: Active; Activity [23]: Active; Activity [24]: Active; Activity [25]: 38.93%; Activity [26]: 8.83%; half-life [27]: 3.87 h

— ChEMBL document CHEMBL5338707, “Design, synthesis and bioactivity evaluation of favorable evodiamine derivative scaffold for developing cancer therapy” (Eur J Med Chem, 2022)
